“And” between values parts separate entries of the source, which are not always exact repeats. Equal values may be shown once. ± gives the expanded uncertainty stated by the source.
Conditions: Fluid (supercritical or subcritical phases); for mass density: Buoyancy - hydrostatic balance with magnetic suspension - one sinker; for viscosity: vibrating wire

Compound CCC [propane] has a mass density (373.15 K, 4515.1 kPa) of 229.821 ± 0.84 kg/m3, a viscosity (373.15 K, 4515.1 kPa) of 0.02377 ± 0.00017 mPa·s and a mass density (373.15 K, 4530.1 kPa) of 241.836 ± 0.87 kg/m3. It also gave a viscosity (373.15 K, 4530.1 kPa) of 0.02518 ± 0.00018 mPa·s, a mass density (373.15 K, 4530.2 kPa) of 241.88 ± 0.87 kg/m3 and a viscosity (373.15 K, 4530.2 kPa) of 0.02519 ± 0.00018 mPa·s. For the same compound, the mass density (373.15 K, 4556 kPa) was 256.611 ± 0.91 kg/m3, the viscosity (373.15 K, 4556 kPa) was 0.02701 ± 0.00019 mPa·s and the mass density (373.15 K, 4556.1 kPa) was 256.634 ± 0.91 kg/m3. It also gave a viscosity (373.15 K, 4556.1 kPa) of 0.027 ± 0.00019 mPa·s, a mass density (373.15 K, 4576.2 kPa) of 264.588 ± 0.93 kg/m3 and a viscosity (373.15 K, 4576.2 kPa) of 0.02805 ± 0.0002 mPa·s. The mass density (373.15 K, 4576.3 kPa) was 264.609 ± 0.93 kg/m3, the viscosity (373.15 K, 4576.3 kPa) was 0.02806 ± 0.0002 mPa·s and the mass density (373.15 K, 4606.1 kPa) was 273.294 ± 0.96 kg/m3 and 273.287 ± 0.96 kg/m3. The viscosity (373.15 K, 4606.1 kPa) was 0.02925 ± 0.00021 mPa·s and 0.02926 ± 0.00021 mPa·s, the mass density (373.15 K, 4657.2 kPa) was 283.68 ± 0.98 kg/m3 and the viscosity (373.15 K, 4657.2 kPa) was 0.03078 ± 0.00022 mPa·s. The mass density (373.15 K, 4657.5 kPa) was 283.727 ± 0.98 kg/m3, the viscosity (373.15 K, 4657.5 kPa) was 0.03078 ± 0.00022 mPa·s and the mass density (373.15 K, 4809.3 kPa) was 301.877 ± 0.71 kg/m3. For the same compound, the viscosity (373.15 K, 4809.3 kPa) was 0.03369 ± 0.00022 mPa·s, the mass density (373.15 K, 4809.5 kPa) was 301.894 ± 0.71 kg/m3 and the viscosity (373.15 K, 4809.5 kPa) was 0.03367 ± 0.00022 mPa·s. It also gave a mass density (373.15 K, 5105.6 kPa) of 320.889 ± 0.71 kg/m3, a viscosity (373.15 K, 5105.6 kPa) of 0.03705 ± 0.00024 mPa·s and a mass density (373.15 K, 5105.8 kPa) of 320.902 ± 0.71 kg/m3. For the same compound, the viscosity (373.15 K, 5105.8 kPa) was 0.03706 ± 0.00024 mPa·s, the mass density (373.15 K, 5614.7 kPa) was 339.536 ± 0.74 kg/m3 and the viscosity (373.15 K, 5614.7 kPa) was 0.04075 ± 0.00027 mPa·s. The mass density (373.15 K, 5616.4 kPa) was 339.584 ± 0.74 kg/m3, the viscosity (373.15 K, 5616.4 kPa) was 0.04077 ± 0.00027 mPa·s and the mass density (373.15 K, 5652.1 kPa) was 340.592 ± 0.74 kg/m3. For the same compound, the viscosity (373.15 K, 5652.1 kPa) was 0.04096 ± 0.00027 mPa·s, the mass density (373.15 K, 5664.6 kPa) was 340.939 ± 0.74 kg/m3 and the viscosity (373.15 K, 5664.6 kPa) was 0.04104 ± 0.00027 mPa·s. It also gave a mass density (373.15 K, 5665.9 kPa) of 340.974 ± 0.74 kg/m3, a viscosity (373.15 K, 5665.9 kPa) of 0.04105 ± 0.00027 mPa·s and a mass density (373.15 K, 6602.8 kPa) of 360.84 ± 0.77 kg/m3. For the same compound, the viscosity (373.15 K, 6602.8 kPa) was 0.04555 ± 0.0003 mPa·s, the mass density (373.15 K, 6603.5 kPa) was 360.852 ± 0.77 kg/m3 and the viscosity (373.15 K, 6603.5 kPa) was 0.04553 ± 0.0003 mPa·s. The mass density (373.15 K, 8140.1 kPa) was 381.197 ± 0.79 kg/m3, the viscosity (373.15 K, 8140.1 kPa) was 0.05077 ± 0.00033 mPa·s and the mass density (373.15 K, 8140.4 kPa) was 381.2 ± 0.79 kg/m3. For the same compound, the viscosity (373.15 K, 8140.4 kPa) was 0.05076 ± 0.00033 mPa·s, the mass density (373.15 K, 10482 kPa) was 401.46 ± 0.82 kg/m3 and the viscosity (373.15 K, 10482 kPa) was 0.05673 ± 0.00036 mPa·s. The mass density (373.15 K, 10483 kPa) was 401.469 ± 0.82 kg/m3, the viscosity (373.15 K, 10483 kPa) was 0.05674 ± 0.00036 mPa·s and the mass density (373.15 K, 13841 kPa) was 421.334 ± 0.85 kg/m3 and 421.333 ± 0.85 kg/m3. The viscosity (373.15 K, 13841 kPa) was 0.06347 ± 0.00039 mPa·s and 0.06343 ± 0.00039 mPa·s, the mass density (373.15 K, 18565 kPa) was 441.166 ± 0.89 kg/m3 and the viscosity (373.15 K, 18565 kPa) was 0.07127 ± 0.00044 mPa·s. For the same compound, the mass density (373.15 K, 18567 kPa) was 441.173 ± 0.89 kg/m3, the viscosity (373.15 K, 18567 kPa) was 0.07127 ± 0.00044 mPa·s and the mass density (373.15 K, 25008 kPa) was 460.907 ± 0.94 kg/m3. For the same compound, the viscosity (373.15 K, 25008 kPa) was 0.08006 ± 0.00049 mPa·s and 0.08024 ± 0.00049 mPa·s, the mass density (373.15 K, 25010 kPa) was 460.912 ± 0.94 kg/m3 and the viscosity (373.15 K, 25010 kPa) was 0.08022 ± 0.00049 mPa·s and 0.08013 ± 0.00049 mPa·s. It also gave a mass density (373.15 K, 28973 kPa) of 470.682 ± 0.96 kg/m3, a viscosity (373.15 K, 28973 kPa) of 0.08526 ± 0.00052 mPa·s and a mass density (373.15 K, 28975 kPa) of 470.686 ± 0.96 kg/m3. For the same compound, the viscosity (373.15 K, 28975 kPa) was 0.08531 ± 0.00052 mPa·s and 0.08536 ± 0.00052 mPa·s and 0.0853 ± 0.00052 mPa·s, the mass density (373.15 K, 29829 kPa) was 472.623 ± 0.96 kg/m3 and the viscosity (373.15 K, 29829 kPa) was 0.08626 ± 0.00053 mPa·s. The mass density (373.15 K, 29830 kPa) was 472.624 ± 0.96 kg/m3, the viscosity (373.15 K, 29830 kPa) was 0.08626 ± 0.00053 mPa·s and the mass density (423.15 K, 79.37 kPa) was 0.99883 ± 0.003 kg/m3. It also gave a viscosity (423.15 K, 79.37 kPa) of 0.01136 ± 6.8e-05 mPa·s, a mass density (423.15 K, 158.25 kPa) of 1.9998 ± 0.0048 kg/m3 and a viscosity (423.15 K, 158.25 kPa) of 0.01137 ± 6.8e-05 mPa·s. It also gave a mass density (423.15 K, 313.56 kPa) of 3.9954 ± 0.0087 kg/m3, a viscosity (423.15 K, 313.56 kPa) of 0.0114 ± 6.9e-05 mPa·s and a mass density (423.15 K, 466.92 kPa) of 5.9988 ± 0.013 kg/m3. The viscosity (423.15 K, 466.92 kPa) was 0.01142 ± 6.9e-05 mPa·s, the mass density (423.15 K, 467.03 kPa) was 6.0003 ± 0.013 kg/m3 and the viscosity (423.15 K, 467.03 kPa) was 0.01143 ± 6.9e-05 mPa·s. For the same compound, the mass density (423.15 K, 611.2 kPa) was 7.9148 ± 0.017 kg/m3, the viscosity (423.15 K, 611.2 kPa) was 0.01145 ± 6.9e-05 mPa·s and the mass density (423.15 K, 611.47 kPa) was 7.9184 ± 0.017 kg/m3. For the same compound, the viscosity (423.15 K, 611.47 kPa) was 0.01145 ± 6.9e-05 mPa·s, the mass density (423.15 K, 763.44 kPa) was 9.9704 ± 0.021 kg/m3 and the viscosity (423.15 K, 763.44 kPa) was 0.01148 ± 6.9e-05 mPa·s. The mass density (423.15 K, 763.61 kPa) was 9.9726 ± 0.021 kg/m3, the viscosity (423.15 K, 763.61 kPa) was 0.01148 ± 6.9e-05 mPa·s and the mass density (423.15 K, 920.8 kPa) was 12.133 ± 0.026 kg/m3. For the same compound, the viscosity (423.15 K, 920.8 kPa) was 0.01151 ± 6.9e-05 mPa·s and 0.01152 ± 6.9e-05 mPa·s, the mass density (423.15 K, 1060.2 kPa) was 14.082 ± 0.03 kg/m3 and the viscosity (423.15 K, 1060.2 kPa) was 0.01155 ± 7e-05 mPa·s. For the same compound, the mass density (423.15 K, 1061.3 kPa) was 14.098 ± 0.03 kg/m3, the viscosity (423.15 K, 1061.3 kPa) was 0.01155 ± 7e-05 mPa·s and the mass density (423.15 K, 1192.7 kPa) was 15.966 ± 0.034 kg/m3. It also gave a viscosity (423.15 K, 1192.7 kPa) of 0.01158 ± 7e-05 mPa·s, a mass density (423.15 K, 1193.5 kPa) of 15.977 ± 0.034 kg/m3 and a viscosity (423.15 K, 1193.5 kPa) of 0.01158 ± 7e-05 mPa·s. The mass density (423.15 K, 1334.7 kPa) was 18.018 ± 0.038 kg/m3.
